Measurements published in US20040121969A1, “Antiviral nucleoside derivatives” (Roche Palo Alto LLC, priority 2002, published 2004).

system: human mononuclear cells; test: not given; conditions: treatment of human mononuclear cells; cited from earlier work

| Compound | levels of IL-2, TNFα and IFNΓ |
| --- | --- |
| NC(=O)c1ncn([C@@H]2O[C@H](CO)[C@@H](O)[C@H]2O)n1 [Ib, ribavirin] | elevated levels |

system: Caco-2 cells; test: Caco-2 cell assay permeability; format: in vitro ADME, Human; conditions: Caco-2
Text: For general discussions of the Caco Assay see: S. Yee, “In Vitro Permeability Across Caco-2 Cells (Colonic) Can Predict In Vivo (Small Intestinal) Absorption in Man—Fact or Myth” Pharm. Res. 14(6):763-766 (1997) and Yamashita et. al., “Analysis of Drug Permeation Across Caco-2 Monolayer: Implication for Predicting In Vivo Drug Absorption” Pharm. Res. 14(4):486-491(1997). For specific technical aspects see: Grass, G. M. and Sweetana, S. A. “In Vitro Measurement of Gastrointestinal Tissue Permeability Using a New Diffusion Cell” Pharm. Res. 5(6):372-376 (1988); Rubas et. al., “Comparison of the Permeability Characteristics of a Human Colonic Epithelial (Caco-2) Cell Line to Colon of Rabbit, Monkey, and Dog Intestine and Human Drug Absorption” Pharm. Res. 10(1): 113-117 (1993).
High passage (108-120) Caco-2 cells are cultured in Dulbecco's Modified Eagle Media with high Glucose and L-Glutamine (DMEM) (Gibco/Life Technologies, Cat # 11965-084) supplemented with 10% Fetal Bovine Serum, 1× L-Glutamine (Gibco/Life Technologies, Cat # 25030-081) 1× Penicillin-streptomycin (Gibco/Life Technologies, Cat # 15140-122) 1× Non-essential Amino Acids, (Gibco/Life Technologies, Cat # 11140-019). Cells are maintained in T225 cm^2 Cell Culture Flask Tissue Culture Treated (Costar, Cat # 3001) at 37° C. and 5% CO2. For transport experiments, cells are plated at 7.1×10^4 cells/well into 12-well collagen-coated PTFE membrane polystyrene plates with inserts (Costar # 3493, 12 mm diameter, 0.4 um pore size, sterile, tissue culture treated). Cells are fed every 3 days and maintained at 37° C. and 5% CO2 for 21 days to allow complete formation of a polarized monolayer with tight junctions.
Prepare 5 mg/ml stock solution of test compound in DMSO and store at 4° C. Dilute desired amount of 5 mg/ml stock to 10 mL with pH 6.5 Kreb's Henseleit bicarbonate buffer to give a concentration of 100 μM. Then 1 mL of 100 μM solution was further diluted to 5 mL to make the concentration of 20 μM. This 20 μM test solution was used as initial donor dosing solution (D0). Warm drug solution(s) to 37° C. before use.
1. Prewarm buffer, working solutions, and three 12-well plates containing buffer for each plate of 12 inserts. Using a millicell®-ERS equipped with “chopstick” electrodes (Millipore, Bedford, Mass.) check the TEER. This procedure should be done when the cells are at approximately 37° C., since TEER is effected by temperature. Use only those inserts that have TEER above 300 ohms.
2. Decant media and wash each insert once with warm Kreb's-Henseleit bicarbonate buffer.
3. 0.5 mL pH 6.5 Kreb's-Henseleit buffer was added to apical side of the cell monolayers and 1.25 mL pH 7.4 Kreb's-Henseleit buffer to the basolateral chamber. The cells were equilibrated in 37° C. and 5% CO2 incubator for at least 30 minutes.
4. The apical side buffer was removed and replaced with 0.5 mL 20 μM test solutions.
5. The cells were then incubated at 37° C. and 5% CO2.
6. At 30, 60 and 90 minutes time points, the inserts were transferred to new plates which receiver sides contained 1.25 mL warm fresh pH 7.4 Kreb's-Henseleit buffer.
7. The media from all plates were collected as receiver samples.
8. After 60 min transport studies, Lucifer Yellow (0.05 mL×1000 μM) was added to the apical side of the wells. At the end of the transport studies (90 minutes), the fluorescence of the receiver side samples was measured.
Sample solutions from the donor side were collected at the end of the experiments as D90 samples. The dC/dt of test substance was calculated from sampling data at […] (assume 0 ng/mL) and 60 minutes. The apparent permeability coefficient (Papp) was calculated from the following equation, [formula] […]

| Compound | Caco-2 permeability |
| --- | --- |
| CC(C)[C@H](N)C(=O)N1CCC[C@H]1C(=O)OC[C@@H]1O[C@H](n2cnc(C(N)=O)n2)[C@@H](O)[C@H]1O.Cl [Compound 18, 1-(2S-amino-3-methyl-butyryl)-pyrrolidine-2S-carboxylic acid 5S-(3-carbamoyl-[1,2,4]triazol-1-yl)-3R,4S-dihydroxy-tetrahydro-furan-2S-ylmethyl ester, hydrochloride] | 3.4 ×10⁻⁶ cm/s |

same assay, conditions: apparent permeability coefficient (Papp); apical pH 6.5 to basolateral pH 7.4; 20 μM test solution; 37° C.

| Compound | Caco-2 permeability |
| --- | --- |
| 2S-amino-3-methyl-butyric acid 4S-(2S-amino-3-methyl-butyryloxy)-5S-(3-carbamoyl-[1,2,4]triazol-1-yl)-2S-hydroxymethyl-tetrahydrofuran-3S-yl ester dihydrochloride [Compound 3] | 8.6 ×10⁻⁶ cm/s |
| CCC(=O)OC[C@@H]1O[C@H](n2cnc(C(N)=O)n2)[C@@H](OC(=O)CC)[C@H]1OC(=O)CC [Compound 2, propionic acid 3S,4S-bis-propionyloxy-5S-(3-carbamoyl-[1,2,4]triazol-1-yl)-tetrahydro-furan-2S-ylmethyl ester] | 7.8 ×10⁻⁶ cm/s |
| CC(C)[C@H](N)C(=O)OC[C@@H]1O[C@H](n2cnc(C(N)=O)n2)[C@@H](O)[C@H]1O.Cl [Compound 5, 2S-amino-3-methyl-butyric acid 5S-(3-carbamoyl-[1,2,4]triazol-1-yl)-3R,4S-dihydroxy-tetrahydro-furan-2S-ylmethyl ester, hydrochloride] | 5.6 ×10⁻⁶ cm/s |
| C[C@H](N)C(=O)OC[C@@H]1O[C@H](n2cnc(C(N)=O)n2)[C@@H](O)[C@H]1O.Cc1ccc(S(=O)(=O)O)cc1 [Compound 7, 2S-amino-propionic acid 5S-(3-carbamoyl-[1,2,4]triazol-1-yl)-3R,4S-dihydroxy-tetrahydro-furan-2S-ylmethyl ester; compound with toluene-4-sulfonic acid] | 1.2 ×10⁻⁶ cm/s |
| CC(C)C[C@H](N)C(=O)OC[C@@H]1O[C@H](n2cnc(C(N)=O)n2)[C@@H](O)[C@H]1O.Cc1ccc(S(=O)(=O)O)cc1 [Compound 9, 2S-amino-4-methyl-pentanoic acid 5S-(3-carbamoyl-[1,2,4]triazol-1-yl)-3R,4S-dihydroxy-tetrahydro-furan-2S-ylmethyl ester; compound with toluene-4-sulfonic acid] | 0.9 ×10⁻⁶ cm/s |
| CC[C@H](C)[C@H](N)C(=O)OC[C@@H]1O[C@H](n2cnc(C(N)=O)n2)[C@@H](O)[C@H]1O.Cc1ccc(S(=O)(=O)O)cc1 [Compound 10, 2S-amino-3S-methyl-pentanoic acid 5S-(3-carbamoyl-[1,2,4]triazol-1-yl)-3R,4S-dihydroxy-tetrahydro-furan-2S-ylmethyl ester; compound with toluene-4-sulfonic acid] | 1.5 ×10⁻⁶ cm/s |
| CC(C)C(=O)O[C@@H]1[C@H](OC(=O)C(C)C)[C@@H](n2cnc(C(N)=O)n2)O[C@H]1CO [Compound 17, isobutyric acid 2S-(3-carbamoyl-[1,2,4]triazol-1-yl)-5S-hydroxymethyl-4S-isobutyryloxy-tetrahydro-furan-3S-yl ester] | 4.8 ×10⁻⁶ cm/s |
| NC(=O)c1ncn([C@H]2O[C@@H](CO)[C@H](OC(=O)c3ccccc3)[C@@H]2OC(=O)c2ccccc2)n1 [Compound 28, benzoic acid 4S-benzoyloxy-5S-(3-carbamoyl-[1,2,4]triazol-1-yl)-2S-hydroxymethyl-tetrahydro-furan-3S-yl ester] | 26.6 ×10⁻⁶ cm/s |
| CCCCCCCC(=O)OC[C@@H]1O[C@H](n2cnc(C(N)=O)n2)[C@@H](O)[C@H]1O [Compound 34, octanoic acid 5S-(3-carbamoyl-[1,2,4]triazol-1-yl)-3R,4S-dihydroxy-tetrahydrofuran-2S-ylmethyl ester] | 6.5 ×10⁻⁶ cm/s |

system: not given; test: not given; conditions: background statement; cited from earlier work

| Compound | dose absorbed systemically after oral administration |
| --- | --- |
| NC(=O)c1ncn([C@H]2O[C@@H](CO)[C@@H](O)[C@H]2O)n1 [levovirin, Levovirin] | about 15% |
